{"source": "patent US20240271071A1", "about": "“METHOD AND APPARATUS FOR FORMING A MICROFLUIDIC GEL STRUCTURE” (Mimetas B.V., priority 2021, published 2024)", "tested_on": "HCAEC and HCASMC co-culture", "experiment": "Visualising contractile lumen (vasodilation/vasoconstriction) in coronary artery tubule model", "assay_type": "cell-based, Human", "details": "Sildenafil at day 6, 5 μM, 50 μM and 500 μM, after Norepinephrine at day 3; phase contrast images, 30 minutes post-exposure", "experimental": "For this example, a 3-lane OrganoPlate® ([…]) with 400 μm wide lanes was used, which comprises a microfluidic network of 3 lanes and two capillary pressure barriers. The network was filled with 50 μL HBSS in the observation window (the point where the 3 lanes converge) to provide additional humidity to the plate. The central lane was filled at the inlet with a neutralised bovine type I atelocollagen solution PureCol® EZ Gel 5 mg/ml (Advanced BioMatrix); the solution was pinned at the capillary pressure barrier leaving a free-standing meniscus at the air-liquid interface in the upper and lower lane. A 30 μL solution of HBSS was introduced into the inlet of the centre lane, and a 1 μL solution of 5% FBS in PBS was introduced at the hole of the outlet of the centre lane forming a dome shape as in Example 1. […] After 1 minute 50 μL of HBSS was added to the outlet and the OrganoPlate was placed in a humidity-controlled environment at 37° C. and 5% CO2 for 1 hour. For cell seeding, 1 μL of a cell suspension containing 10,000 cell/μL Primary Human Coronary Artery Endothelial Cells (HCAEC) and 2,500 cell/μL Primary Human Coronary Artery Smooth Muscle Cells (HCASMC) was seeded in the outlet of the middle lane. The cell suspension was driven into the microfluidic network by means of Laplace pressure due to the surface tension of the cell pellet. Cells were left to attach for between 2-6 hours. […]"}
{"compound": "CCCc1nn(C)c2c(=O)[nH]c(-c3cc(S(=O)(=O)N4CCN(C)CC4)ccc3OCC)nc12", "note": "[Sildenafil]", "values": [{"measurement": "contraction of the tubule / change of lumen diameter upon exposure to a stimulus", "result": "contraction"}]}
